Laboratory results as given in patent US20070078091A1, “Pharmaceutical combinations for compensating for a testosterone deficiency in men while simultaneously protecting the prostate” (priority 1998, published 2007).

Key:
LNCaP prostate cells = test: Inhibition of androgen-dependent cell proliferation in LNCaP prostate cells (growth assay, cell number after 7 days); type: cell-based, human; details: androgen alone, FIG. 1
Excerpt: In the example of the inhibition of the androgen-dependent cell proliferation in LNCaP prostate cells, the biological mechanism of action of the combination of 17β-hydroxy-17α-methyl-estra-4,9,11-trien-3-one (R 1881)+the 17α-cyano-methyl-17β-hydroxy-estra-4,9-dien-3-one (DIENOGEST=DNG) was examined.
To this end, the human prostate cancer cell LNCaP was cultivated under routine conditions in Dulbecco's modified Eagle medium (DMEM) with the addition of 10% FCS (fetal calf serum).
The cells were then cultured for 2 to 6 passages with DMEM and 10% DCC-FCS (steroid-depleted FCS), before it was used in a growth assay with 5% DCC-FCS.
For the test, the cells were saturated in 24-well plates (10,000 cells/well and ml).
After 24 hours, the steroids that were dissolved in ethanol were added to fresh test medium (final concentration of ethanol 0.1%), and the cells were incubated for 7 days at 37° (5% CO2). The cell number was determined after this time in a cell counting and analysis system (CASY, Scharfe System GmbH).

[1] = tested on: prostate of castrated male NMRI mice; test: Prostate weights of castrated mice after combined testosterone/gestagen treatment; type: in vivo
Procedure: The inhibition of a prostate growth that was induced by androgens and that was treated with a combination according to the invention, was also examined in the animal experiment.
To this end, 5 male NMRI mice of Møllegaard Breeding Centre Deutschland GmbH, Schönwalde weighing 28-30 g were castrated. Two weeks after the castration, testosterone propionate (TP) by itself—0.1 mg/animal—was administered to the control animals.
Also, two weeks after castration, the test animals were orally treated daily for one week with testosterone propionate (TP) 0.1 mg/animal/day s.c. and simultaneously with the following gestagens and the following dosages:
cyproterone acetate (CPA) at dosages of 0.1; 0.3; 1; 3 mg/animal/day dienogest (DNG) at dosages of 0.3; 1; 3; 10 mg/animal/day, chloromadinone acetate (CMA) at dosages 0.3; 1; 3; 10 mg/animal/day.
At the end of the test, the prostate weights of the mice were determined, and the test groups were compared.

prostate [2] = details: young men under exogenic testosterone administration; cited from earlier work
prostate [3] = details: 8-month therapy, 23 men aged 40-65 years, 160 mg/day; cited from earlier work

C[C@]1(O)CC[C@H]2[C@@H]3CCC4=CC(=O)CCC4=C3C=C[C@@]21C [R1881, 17β-hydroxy-17α-methyl-estra-4,9,11-trien-3-one]
Cell growth of LNCaP cells (LNCaP prostate cells): induces a cell growth

CCC(=O)O[C@H]1CC[C@H]2[C@@H]3CCC4=CC(=O)CC[C@]4(C)[C@H]3CC[C@]12C [TP, testosterone propionate]
Effect on prostate weight compared to the castrated and the intact control animals ([1]; 0.1 mg/animal/day): causes a clear increase of the prostate weight | Prostate weight (mean value ± S.D.) ([1]; TP 0.1 mg/animal alone (TP control), n = 5): 4.4 ± 0.7 mg

CCCCCCC(=O)O[C@H]1CC[C@H]2[C@@H]3CCC4=CC(=O)CC[C@]4(C)[C@H]3CC[C@]12C [testosterone enanthate]
Prostate size by transrectal ultrasound (prostate [2]): an enlargement of the prostate was found

CCCCCCCCCCC(=O)O[C@H]1CC[C@H]2[C@@H]3CCC4=CC(=O)CC[C@]4(C)[C@H]3CC[C@]12C [testosterone undecanoate]
Increase in size of the prostate (prostate [3]): 12%
